Where a chain is given by its changes, count along the chain named.
Tests used:
ABCG2 [1] = biological target: T1, ABCG2 (Homo sapiens, UniProt Q9UNQ0); assay: competition of […]-IAAP photoaffinity labeling in crude membranes; also ATPase stimulation ([…] of maximum at […]); assay type: binding
T1 construct: wild-type ABCG2 in crude membranes of MCF-7 FLV1000 cells
T1 sequence (Q9UNQ0 1-655): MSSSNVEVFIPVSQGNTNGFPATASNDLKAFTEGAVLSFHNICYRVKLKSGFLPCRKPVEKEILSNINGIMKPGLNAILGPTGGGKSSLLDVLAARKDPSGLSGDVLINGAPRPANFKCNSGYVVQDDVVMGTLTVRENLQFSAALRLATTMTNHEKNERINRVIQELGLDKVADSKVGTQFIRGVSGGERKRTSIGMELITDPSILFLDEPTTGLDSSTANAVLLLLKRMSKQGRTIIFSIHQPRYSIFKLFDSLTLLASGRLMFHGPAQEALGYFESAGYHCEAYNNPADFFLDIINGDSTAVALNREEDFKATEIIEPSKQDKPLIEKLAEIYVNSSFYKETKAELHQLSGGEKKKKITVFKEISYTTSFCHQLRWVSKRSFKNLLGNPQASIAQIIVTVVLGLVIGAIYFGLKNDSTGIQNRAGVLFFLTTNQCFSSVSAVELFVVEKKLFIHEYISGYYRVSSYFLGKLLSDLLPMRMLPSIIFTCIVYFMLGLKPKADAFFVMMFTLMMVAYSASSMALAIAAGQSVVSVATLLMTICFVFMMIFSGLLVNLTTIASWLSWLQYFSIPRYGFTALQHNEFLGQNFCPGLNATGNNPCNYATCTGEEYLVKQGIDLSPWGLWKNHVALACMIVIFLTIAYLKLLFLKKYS

ABCG2 [2] = biological target: T2, ABCG2 (Homo sapiens, UniProt Q9UNQ0, R482G); assay: [3H]-mitoxantrone accumulation in transfected cells ([…]); assay type: cell-based
T2 construct: full-length ABCG2 in transfected HEK293 cells (ABCG2-482-G2)
T2 sequence (Q9UNQ0 1-655 R482G): T1 sequence (Q9UNQ0 1-655) with R482G

C#Cc1cccc(Nc2ncnc3cc4c(cc23)OCCOCCOCCO4)c1 [Icotinib]
IC50 (ABCG2 [1]): 1.61 µM
[3H]-mitoxantrone accumulation in transfected cells (1.0 and 5.0 μM) (ABCG2 [2]): significantly increased intracellular accumulation of [^3H]-MX in both the NCI-H460 and NCI-H460/MX20 cells, as well as the ABCG2-482-R2, ABCG2-482-G2
